Data from PMC9785688 (Pharmaceutics, 2022).
Like-named read-outs stand apart in the source and are kept apart here.

Legend:
[1] = molecular target: T1, P-glycoprotein (P-gp) function at the blood-brain barrier (BBB) (Rattus norvegicus, UniProt Q6PSM0); test: [^11C]metoclopramide brain PET imaging with kinetic modelling (Logan plot) in rats; assay type: in vivo; details: oral pretreatment of healthy Sprague Dawley rats (CBZ 45 mg/kg twice a day for 7 days; RIT 20 mg/kg 3 h before PET)
T1 construct: Kinetic modeling was performed to estimate the impact of these drugs on P-gp function at the BBB; from tissue; host or cells: blood-brain barrier (brain) of living Sprague Dawley rats, in vivo PET
Description: In animals of the CBZ group (n = 4), CBZ suspension was administered by oral gavage at a dose of 45 mg/kg, twice a day (8 A.M and 5 P.M) for 7 days before the PET imaging. Each animal received a total of 14 doses of CBZ before the PET experiment.
A RIT suspension (10 mg/mL) was freshly prepared prior to oral administration by adding 100 mg of RIT powder to 9.4 mL of water for injection. Animals of the RIT group (n = 4) received a single dose of 20 mg/kg of RIT 3 hours before the PET experiment.
PET acquisitions were performed in Baseline, CBZ and RIT pretreated animals (n = 4 per condition) using an Inveon microPET scanner (Siemens, Knoxville, TN, USA). Anesthesia was induced and thereafter maintained using 3.5% and 1.5–2.5% isoflurane in O2, respectively.
Images were reconstructed with the Fourier rebinning algorithm and the 3-dimensional ordered-subset expectation-maximization algorithm, including normalization, attenuation, scatter, and random corrections. […] Radioactivity was corrected for ^11C decay and expressed as standardized uptake value (SUV, unitless) after correction for injected dose and animal weight. […]
Kinetic modeling was also performed using PMOD software. […] Each individual IDIF was corrected by a group-specific, average whole-blood/plasma radioactivity ratio which was obtained from the arterial blood samples collected in the separate groups of animals (see above).

[2] = tested on: P-gp; details: cited from earlier work
[3] = design: method as in PMID 30630940; details: humans, at 30 min, microdose; cited from earlier work
[4] = rodents, at 30 min, microdose; cited from earlier work

T1 sequence (Q6PSM0 1-1272): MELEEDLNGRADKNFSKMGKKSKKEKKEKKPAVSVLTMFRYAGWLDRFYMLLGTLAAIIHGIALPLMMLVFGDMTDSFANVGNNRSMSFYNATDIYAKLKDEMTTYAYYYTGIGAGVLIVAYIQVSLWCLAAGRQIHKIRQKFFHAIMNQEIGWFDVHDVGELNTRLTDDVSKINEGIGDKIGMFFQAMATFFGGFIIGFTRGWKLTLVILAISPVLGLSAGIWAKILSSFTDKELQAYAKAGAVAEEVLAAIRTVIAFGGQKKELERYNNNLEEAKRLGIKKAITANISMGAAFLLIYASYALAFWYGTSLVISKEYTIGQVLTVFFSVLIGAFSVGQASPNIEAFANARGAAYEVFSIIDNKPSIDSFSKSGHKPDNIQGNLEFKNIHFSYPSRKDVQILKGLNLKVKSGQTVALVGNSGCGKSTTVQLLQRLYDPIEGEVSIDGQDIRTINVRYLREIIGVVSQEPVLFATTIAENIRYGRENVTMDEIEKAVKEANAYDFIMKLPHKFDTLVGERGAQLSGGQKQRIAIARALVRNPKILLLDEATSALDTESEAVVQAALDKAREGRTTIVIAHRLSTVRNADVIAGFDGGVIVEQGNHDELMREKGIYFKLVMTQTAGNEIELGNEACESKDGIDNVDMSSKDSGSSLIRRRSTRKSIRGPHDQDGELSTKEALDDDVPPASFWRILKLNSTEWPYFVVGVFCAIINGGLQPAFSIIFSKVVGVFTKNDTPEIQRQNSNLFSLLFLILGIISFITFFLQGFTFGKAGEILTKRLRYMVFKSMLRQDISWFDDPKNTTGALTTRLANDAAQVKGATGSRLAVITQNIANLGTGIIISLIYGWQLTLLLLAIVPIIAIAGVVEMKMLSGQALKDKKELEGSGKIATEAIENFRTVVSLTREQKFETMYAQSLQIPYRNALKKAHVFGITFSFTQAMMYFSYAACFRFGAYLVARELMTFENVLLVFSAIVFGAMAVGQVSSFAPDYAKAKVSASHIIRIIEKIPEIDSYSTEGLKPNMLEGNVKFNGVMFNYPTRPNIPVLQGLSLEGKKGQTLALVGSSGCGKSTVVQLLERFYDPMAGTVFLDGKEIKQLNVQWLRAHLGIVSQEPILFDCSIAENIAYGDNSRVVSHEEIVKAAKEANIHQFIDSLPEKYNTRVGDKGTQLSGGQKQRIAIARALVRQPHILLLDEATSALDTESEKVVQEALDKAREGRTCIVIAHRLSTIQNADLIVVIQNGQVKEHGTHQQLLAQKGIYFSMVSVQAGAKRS

Compound | Effect on P-gp function at the BBB (from [^11C]metoclopramide PET) [1] | P-gp inhibition in vitro [2] | Fraction of parent [^11C]metoclopramide [3] | Fraction of parent [^11C]metoclopramide [4]
NC(=O)N1c2ccccc2C=Cc2ccccc21 [CBZ, carbamazepine] | does not substantially induce or inhibit | – | – | –
CC(C)c1nc(CN(C)C(=O)N[C@H](C(=O)N[C@@H](Cc2ccccc2)C[C@H](O)[C@H](Cc2ccccc2)NC(=O)OCc2cncs2)C(C)C)cs1 [RIT, ritonavir] | apparently behaving as an inhibitor | potent P-gp inhibitor | – | –
CCN(CC)CCNC(=O)c1cc(Cl)c(N)cc1O[11CH3] [[^11C]metoclopramide] | – | – | ~ 60% | ~ 10%
